Results published in BindingDB's records for patent US12357603 (Bayer Aktiengesellschaft; The Broad Institute, Inc., 2025).

Experiments:
[1] = molecular target: Histone acetyltransferase KAT6A (UniProt Q92794); test: Kat6a Activity Assay
Procedure: Recombinant human His-tagged Kat6a protein (amino acids 194-810), was purified in-house from Baculovirus-infected insect cells (Sf9). Histone H4 peptide (amino acids 1-24, […]-VLRD-K(Btn)-amide), which was used as substrate, was synthesized by Biosyntan GmbH, Berlin, Germany. Acetyl Coenzyme A was purchased from Sigma-Aldrich (#A-2056).Kat6a was incubated for 60 mins at 22° C. in the presence of different concentrations of test substances (0 μM, and within the range 0.01-20 μM) in assay buffer [25 mM Tris/HCl pH 8, 1 mM EGTA, 2.5 mM Glutathion, 0.02% Chicken Albumin, 0.05% Pluronic F127, 25 mM NaCl, 220 nM H4 peptide and 600 nM Acetyl Coenzym A].The reaction was stopped by addition of Detection Solution (25 mM HEPES pH 7.5, 0.1% BSA, 22 nM SAXL665 (Cisbio #610SAXLE), 100 μM Anacardic Acid (Enzo #ALX-270-381), 1 nM Anti-Histone H4 (ACETYL K8) Antibody (ABCAM #AB15823) and 0.5 nM Anti-Rabbit IgG Eu (Perkin Elmer #AD0083).

[2] = molecular target: T1, Histone acetyltransferase KAT6B [431-2073] (Homo sapiens (Human), UniProt Q8WYB5); test: Kat6b Activity Assay
T1 construct: 431-2073
T1 sequence (Q8WYB5 431-2073): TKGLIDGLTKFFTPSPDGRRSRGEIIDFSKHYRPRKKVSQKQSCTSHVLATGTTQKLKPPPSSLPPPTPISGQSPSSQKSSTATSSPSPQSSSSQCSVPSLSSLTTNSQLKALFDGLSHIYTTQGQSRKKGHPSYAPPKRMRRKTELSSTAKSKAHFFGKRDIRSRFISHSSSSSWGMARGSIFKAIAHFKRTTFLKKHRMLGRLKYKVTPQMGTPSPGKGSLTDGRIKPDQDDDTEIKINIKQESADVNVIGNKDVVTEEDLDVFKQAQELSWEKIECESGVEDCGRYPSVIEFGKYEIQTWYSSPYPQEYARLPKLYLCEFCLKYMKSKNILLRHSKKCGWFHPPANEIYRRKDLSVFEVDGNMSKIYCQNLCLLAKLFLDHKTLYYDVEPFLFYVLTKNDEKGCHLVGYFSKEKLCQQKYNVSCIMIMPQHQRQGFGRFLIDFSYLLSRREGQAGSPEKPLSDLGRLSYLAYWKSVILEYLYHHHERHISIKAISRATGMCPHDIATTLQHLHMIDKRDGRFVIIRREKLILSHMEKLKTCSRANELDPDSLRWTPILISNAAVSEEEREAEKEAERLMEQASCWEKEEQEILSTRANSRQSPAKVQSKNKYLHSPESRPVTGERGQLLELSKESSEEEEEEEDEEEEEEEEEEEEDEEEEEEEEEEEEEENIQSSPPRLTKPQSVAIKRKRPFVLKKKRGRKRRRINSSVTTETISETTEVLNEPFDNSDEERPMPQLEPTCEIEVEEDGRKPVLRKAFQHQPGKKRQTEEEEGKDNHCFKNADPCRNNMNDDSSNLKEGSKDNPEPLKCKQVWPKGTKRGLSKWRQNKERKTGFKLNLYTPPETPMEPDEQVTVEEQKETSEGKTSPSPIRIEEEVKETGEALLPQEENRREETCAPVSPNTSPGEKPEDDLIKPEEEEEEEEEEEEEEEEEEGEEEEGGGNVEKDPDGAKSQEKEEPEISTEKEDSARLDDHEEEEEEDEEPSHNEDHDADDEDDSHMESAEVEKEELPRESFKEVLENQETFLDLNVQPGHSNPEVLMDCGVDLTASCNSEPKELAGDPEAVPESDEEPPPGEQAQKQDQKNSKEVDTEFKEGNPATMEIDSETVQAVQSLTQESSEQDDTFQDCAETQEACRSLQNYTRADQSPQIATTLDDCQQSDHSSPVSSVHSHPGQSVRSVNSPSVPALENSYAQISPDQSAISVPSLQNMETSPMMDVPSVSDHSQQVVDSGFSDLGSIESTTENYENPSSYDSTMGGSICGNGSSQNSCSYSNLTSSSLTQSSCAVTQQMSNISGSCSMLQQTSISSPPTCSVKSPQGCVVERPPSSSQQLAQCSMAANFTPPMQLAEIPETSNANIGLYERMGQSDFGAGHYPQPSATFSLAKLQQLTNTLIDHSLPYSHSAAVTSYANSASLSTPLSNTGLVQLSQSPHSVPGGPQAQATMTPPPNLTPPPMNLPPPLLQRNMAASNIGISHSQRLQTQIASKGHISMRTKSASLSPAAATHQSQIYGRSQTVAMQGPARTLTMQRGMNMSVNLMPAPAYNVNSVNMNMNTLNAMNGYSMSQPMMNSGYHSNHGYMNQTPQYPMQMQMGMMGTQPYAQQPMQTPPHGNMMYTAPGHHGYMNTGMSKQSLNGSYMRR

Sequence of Histone acetyltransferase KAT6A (Q92794 whole entry, the tested form may be a part): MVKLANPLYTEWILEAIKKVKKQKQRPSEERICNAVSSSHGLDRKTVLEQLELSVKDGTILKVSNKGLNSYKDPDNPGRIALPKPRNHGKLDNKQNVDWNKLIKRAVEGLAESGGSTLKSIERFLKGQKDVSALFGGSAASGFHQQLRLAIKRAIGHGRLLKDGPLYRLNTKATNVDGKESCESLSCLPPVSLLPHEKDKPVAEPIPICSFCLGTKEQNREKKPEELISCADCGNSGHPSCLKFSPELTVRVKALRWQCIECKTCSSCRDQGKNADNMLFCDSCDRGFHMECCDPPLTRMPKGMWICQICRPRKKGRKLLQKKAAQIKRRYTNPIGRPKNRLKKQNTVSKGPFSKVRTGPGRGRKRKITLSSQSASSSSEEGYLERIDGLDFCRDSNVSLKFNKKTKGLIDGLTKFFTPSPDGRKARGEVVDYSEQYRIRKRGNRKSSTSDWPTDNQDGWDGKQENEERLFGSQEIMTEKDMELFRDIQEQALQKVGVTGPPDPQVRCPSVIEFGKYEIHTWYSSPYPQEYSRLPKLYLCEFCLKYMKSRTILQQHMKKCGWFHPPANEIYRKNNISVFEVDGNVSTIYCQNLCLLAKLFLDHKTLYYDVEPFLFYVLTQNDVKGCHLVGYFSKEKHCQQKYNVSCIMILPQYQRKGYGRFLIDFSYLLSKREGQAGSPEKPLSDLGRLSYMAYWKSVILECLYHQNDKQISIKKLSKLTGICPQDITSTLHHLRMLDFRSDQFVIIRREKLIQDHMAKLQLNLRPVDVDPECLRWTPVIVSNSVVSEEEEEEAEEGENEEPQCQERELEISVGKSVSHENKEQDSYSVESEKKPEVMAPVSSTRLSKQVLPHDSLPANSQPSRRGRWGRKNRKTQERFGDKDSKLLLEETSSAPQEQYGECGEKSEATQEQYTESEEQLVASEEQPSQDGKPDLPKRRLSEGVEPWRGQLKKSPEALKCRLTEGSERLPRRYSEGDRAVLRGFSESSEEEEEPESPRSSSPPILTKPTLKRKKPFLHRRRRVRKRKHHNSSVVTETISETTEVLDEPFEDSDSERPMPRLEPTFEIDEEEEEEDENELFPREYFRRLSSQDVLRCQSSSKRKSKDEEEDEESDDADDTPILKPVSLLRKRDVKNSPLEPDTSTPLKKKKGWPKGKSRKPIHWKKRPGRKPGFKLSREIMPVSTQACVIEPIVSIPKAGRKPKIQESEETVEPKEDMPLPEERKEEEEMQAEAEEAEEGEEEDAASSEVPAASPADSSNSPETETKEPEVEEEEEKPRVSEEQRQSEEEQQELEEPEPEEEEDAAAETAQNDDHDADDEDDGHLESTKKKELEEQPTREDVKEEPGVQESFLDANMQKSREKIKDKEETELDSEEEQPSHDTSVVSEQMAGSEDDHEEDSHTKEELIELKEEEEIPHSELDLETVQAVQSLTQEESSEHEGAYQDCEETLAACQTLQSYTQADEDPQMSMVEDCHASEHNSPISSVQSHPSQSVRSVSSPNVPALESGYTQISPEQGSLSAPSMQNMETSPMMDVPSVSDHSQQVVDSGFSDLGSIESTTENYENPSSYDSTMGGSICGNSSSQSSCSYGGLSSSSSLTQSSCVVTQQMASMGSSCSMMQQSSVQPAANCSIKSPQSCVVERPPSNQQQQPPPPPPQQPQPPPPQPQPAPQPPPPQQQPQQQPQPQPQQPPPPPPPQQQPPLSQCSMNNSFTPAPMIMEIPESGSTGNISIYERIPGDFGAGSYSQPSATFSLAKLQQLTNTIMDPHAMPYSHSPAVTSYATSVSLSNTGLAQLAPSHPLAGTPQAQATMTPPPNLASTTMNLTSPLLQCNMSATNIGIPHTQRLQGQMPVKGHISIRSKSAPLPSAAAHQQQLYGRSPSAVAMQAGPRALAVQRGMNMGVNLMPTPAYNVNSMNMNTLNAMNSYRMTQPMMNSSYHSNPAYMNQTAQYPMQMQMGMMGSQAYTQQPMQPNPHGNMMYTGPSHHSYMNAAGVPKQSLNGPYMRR

| Structure (SMILES) | IC50 [1] [µM] | IC50 [2] [µM] |
| --- | --- | --- |
| CCN(C)c1ccc2cc(C(=O)NS(=O)(=O)c3ccc(Cl)cc3Cl)oc2c1 [US12357603, Example 03] | 1.39 | 0.81 |
| CN(c1ccccc1)c1ccc2cc(C(=O)NS(=O)(=O)c3ccc(Cl)cc3Cl)oc2c1 [US12357603, Example 09] | 2.55 | 5.72 |
| CCCN(C)c1ccc2cc(C(=O)NS(=O)(=O)c3ccccc3-c3ccccc3)oc2c1 [US12357603, Example 37] | – | 1.06 |
| COCCN(C)c1ccc2cc(C(=O)NS(=O)(=O)c3ccccc3-c3ccccc3)oc2c1 [US12357603, Example 39] | – | 0.534 |
| CN(c1ccc2cc(C(=O)NS(=O)(=O)c3ccccc3-c3ccccc3)oc2c1)C1CCCC1 [US12357603, Example 46] | 3.65 | 0.112 |
| CN(C)c1ccc2cc(C(=O)NS(=O)(=O)c3ccccc3-c3ccc(CO)cc3)oc2c1 [US12357603, Example 51] | 0.0573 | 0.103 |
| CCCc1ccccc1S(=O)(=O)NC(=O)c1cc2ccc(N(C)C)cc2o1 [US12357603, Example 52] | 0.187 | – |
| O=C(NS(=O)(=O)c1ccccc1-c1ccccc1)c1cc2ccc(N3CCCC3=O)cc2o1 [US12357603, Example 62] | 13.5 | > 20 |
| CN(C)c1ccc2cc(C(=O)NS(=O)(=O)c3ccccc3-c3ccccc3)oc2c1C#N [US12357603, Example 64] | 14.3 | – |
| CN(C)c1ccc2cc(C(=O)NS(=O)(=O)c3c(Cl)cccc3Cl)oc2c1 [US12357603, Example 98] | 0.465 | – |
| CN(C)c1ccc2cc(C(=O)NS(=O)(=O)c3cc(Cl)cc4cccnc34)oc2c1 [US12357603, Example 124] | 0.0928 | 0.0522 |
| CN(C)c1c(Br)cc2cc(C(=O)NS(=O)(=O)c3ccccc3-c3ccccc3)oc2c1F [US12357603, Example 206] | 4.7 | – |
| CC(C)Oc1ccccc1S(=O)(=O)NC(=O)c1cc2cc(Br)c(N(C)C)cc2o1 [US12357603, Example 208] | 7.76 | – |
| Cc1ccc2cccc(S(=O)(=O)NC(=O)c3cc4cc(C#N)c(N(C)C)cc4o3)c2n1 [US12357603, Example 209] | 0.903 | – |
| CCOc1ccc(Br)cc1S(=O)(=O)NC(=O)c1cc2ccc(N(C)CCOC)cc2o1 [US12357603, Example 213] | 1.06 | – |
